# Measurements: patent US6737383B1, “Herbicidal oxadiazolidines” (priority 1999, dated 2004)
# Columns and labels:
# corn = assay: Test B pre/postemergence corn; format: in vivo, Zea mays
# How it was run: (§1)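 Response is a visual 0-to-10 score relative to untreated plants, where 0 means no effect and 10 means complete control, taken twelve to sixteen days after application. Treatments went onto soil at planting and onto foliage of 1- to 4-leaf plants, using a surfactant-containing non-phytotoxic solvent.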
# soybean = assay: Test B pre/postemergence soybean; format: in vivo, Glycine max
# How it was run: as §1
# smallflower flatsedge = assay: Test B flood test smallflower flatsedge; format: in vivo, Cyperus difformis; settings: for Plant response rating, S. Flatsedge (0 to 10 scale, 0 is no effect, 10 is complete control): Rate 62 g/ha; for Plant response rating, S. Flatsedge (0 to 10 scale, 0 is no effect, 10 is complete control) / S. Flatsedge plant response rating (0 to 10 scale, 0 is no effect, 10 is complete control): visual evaluation after twelve to sixteen days; for S. Flatsedge plant response rating (0 to 10 scale, 0 is no effect, 10 is complete control): Rate 125 g/ha, under heading Pre-emergence
# How it was run: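 Flood test on plants grown to the 2-leaf stage; treated plants kept in greenhouse twelve to sixteen days, then visually rated against controls on a 0 (no effect) to 10 (complete control) scale.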
# rape = assay: Test B pre/postemergence rape; format: in vivo, Brassica napus
# How it was run: as §1
# [1] = Postemergence, Rate 250 g/ha, scale 0 to 10
# [2] = Postemergence, Rate 500 g/ha, scale of 0 to 10 where 0 is no effect and 10 is complete control
# [3] = Preemergence, Rate 62 g/ha, scale of 0 to 10 where 0 is no effect and 10 is complete control
# [4] = Preemergence, Rate 125 g/ha, scale of 0 to 10 where 0 is no effect and 10 is complete control
# [5] = Preemergence, Rate 250 g/ha, scale 0 to 10, 0 is no effect, 10 is complete control
# [6] = Preemergence, Rate 500 g/ha, scale 0 to 10, 0 is no effect, 10 is complete control
# [7] = Rate 62 g/ha, Postemergence, scale 0 to 10 (0 no effect, 10 complete control)
# [8] = Rate 125 g/ha, Postemergence, scale 0 to 10, 0 is no effect, 10 is complete control
# [9] = flood test species, Pre-emergence
# [10] = Rate 250 g/ha, Pre-emergence (flood test species), scale 0 to 10, 0 is no effect, 10 is complete control
# [11] = Rate 500 g/ha, Pre-emergence, flood test species, scale 0 to 10 (0 no effect, 10 complete control)
# [12] = Postemergence, Rate 1000 g/ha, scale 0 to 10 (0 no effect, 10 complete control)
# [13] = Rate 1000 g/ha, Preemergence, scale 0 to 10 (0 no effect, 10 complete control)
SMILES,Corn plant response rating (corn; [1]),Corn plant response rating (corn; [2]),"Plant response rating, Corn (corn; [3])","Plant response rating, Corn (corn; [4])",Corn plant response rating (corn; [5]),Corn plant response rating (corn; [6]),Corn plant response rating (corn; [7]),Corn plant response rating (corn; [8]),"Plant response rating, Soybean (soybean; [4])",Soybean plant response rating (soybean; [5]),Soybean plant response rating (soybean; [6]),Soybean plant response rating (soybean; [8]),"S. Flatsedge plant response rating (0 to 10 scale, 0 is no effect, 10 is complete control) (smallflower flatsedge; flood test species)",S. Flatsedge plant response rating (smallflower flatsedge; [10]),S. Flatsedge plant response rating (smallflower flatsedge; [11]),Rape plant response rating (rape; [1]),"Plant response rating, Rape (rape; [4])",Rape plant response rating (rape; [5]),Rape plant response rating (rape; [6]),Rape plant response rating (rape; [8]),also measured
CC(C)N(C(=O)n1oc(=O)n(CCC#N)c1=O)c1ccc(Cl)cc1 [Compound 444],0,0,0,0,0,0,0,0,0,2,3,1,0,0,0,0,0,0,2,0,"Soybean plant response rating (soybean; [1]): 2; Soybean plant response rating (soybean; [2]): 2; Plant response rating, Soybean (soybean; [3]): 0; Soybean plant response rating (soybean; [7]): 1; Plant response rating, S. Flatsedge (0 to 10 scale, 0 is no effect, 10 is complete control) (smallflower flatsedge; [9]): 0; Rape plant response rating (rape; [2]): 0; Plant response rating, Rape (rape; [3]): 0; Rape plant response rating (rape; [7]): 0"
CCOP(=O)(Cn1c(=O)on(C(=O)N(c2ccccc2)C(C)C)c1=O)OCC [Compound 447],0,0,,0,0,0,,0,0,0,0,1,0,0,0,0,0,0,0,0,"Corn plant response rating (corn; [12]): 0; Plant response rating, Corn (corn; [13]): 0; Soybean plant response rating (soybean; [1]): 2; Soybean plant response rating (soybean; [2]): 4; Soybean plant response rating (soybean; [12]): 6; S. Flatsedge plant response rating (smallflower flatsedge; Pre-emergence, Rate 1000 g/ha, scale 0 to 10 (0 no effect, 10 complete control)): 0; Rape plant response rating (rape; [2]): 0; Rape plant response rating (rape; [12]): 0; Plant response rating, Rape (rape; [13]): 0"
CCc1nc(C)c(C(C)n2c(=O)on(C(=O)N(c3ccc(F)cc3)C(C)C)c2=O)s1 (stereo not drawn) [Compound 449],0,0,0,0,0,0,0,0,0,0,2,1,0,0,0,0,0,0,0,0,"Soybean plant response rating (soybean; [1]): 2; Soybean plant response rating (soybean; [2]): 2; Plant response rating, Soybean (soybean; [3]): 0; Soybean plant response rating (soybean; [7]): 0; Plant response rating, S. Flatsedge (0 to 10 scale, 0 is no effect, 10 is complete control) (smallflower flatsedge; [9]): 0; Rape plant response rating (rape; [2]): 3; Plant response rating, Rape (rape; [3]): 0; Rape plant response rating (rape; [7]): 0"
CC(C)N(C(=O)n1oc(=O)n(CO)c1=O)c1ccc(Cl)cc1 [Compound 457],0,0,0,0,0,0,0,0,0,0,0,0,0,0,0,0,0,0,0,0,"Soybean plant response rating (soybean; [1]): 1; Plant response rating, Soybean (soybean; [3]): 0; Soybean plant response rating (soybean; [7]): 0; Plant response rating, S. Flatsedge (0 to 10 scale, 0 is no effect, 10 is complete control) (smallflower flatsedge; [9]): 0; Plant response rating, Rape (rape; [3]): 0; Rape plant response rating (rape; [7]): 0"
CC[Si](C)(C)Cn1c(=O)on(C(=O)N(c2ccc(Cl)cc2)C(C)C)c1=O [Compound 460],0,0,0,0,0,2,0,0,0,0,0,3,0,0,0,0,0,0,0,0,"Soybean plant response rating (soybean; [1]): 4; Plant response rating, Soybean (soybean; [3]): 0; Soybean plant response rating (soybean; [7]): 3; Plant response rating, S. Flatsedge (0 to 10 scale, 0 is no effect, 10 is complete control) (smallflower flatsedge; [9]): 0; Plant response rating, Rape (rape; [3]): 0; Rape plant response rating (rape; [7]): 0"
CC(C)N(C(=O)n1oc(=O)n(COC(=O)C(C)(C)C)c1=O)c1ccc(F)cc1 [Compound 462],0,0,0,0,0,0,0,0,0,0,0,1,0,0,0,0,0,0,0,0,"Plant response rating, Soybean (soybean; [3]): 0; Soybean plant response rating (soybean; [7]): 0; Plant response rating, S. Flatsedge (0 to 10 scale, 0 is no effect, 10 is complete control) (smallflower flatsedge; [9]): 0; Plant response rating, Rape (rape; [3]): 0; Rape plant response rating (rape; [7]): 0"
COC(OC)C(C)n1c(=O)on(C(=O)N(c2ccc(F)cc2)C(C)C)c1=O (stereo not drawn) [Compound 471],0,0,0,0,2,3,0,0,0,0,0,2,0,0,0,0,2,7,10,0,"Soybean plant response rating (soybean; [1]): 3; Plant response rating, Soybean (soybean; [3]): 0; Soybean plant response rating (soybean; [7]): 2; Plant response rating, S. Flatsedge (0 to 10 scale, 0 is no effect, 10 is complete control) (smallflower flatsedge; [9]): 0; Plant response rating, Rape (rape; [3]): 2; Rape plant response rating (rape; [7]): 0"
